How the values were obtained:
Assay type in all cases: cell-based, human
[1] = tested on: JNK (55 kD and 46 kD forms); experiment: In-gel kinase assay of JNK in Jurkat whole cell extracts; conditions: for JNK activation, in-gel kinase assay, agent alone: TPA 50 ng/ml or A23187 1 μg/ml
Procedure: In-gel kinase assay was performed as described by Kameshita and Fujisawa, Anal. Biochem., 183:139, (1989) with slight modifications. Briefly, c-Jun binding proteins were isolated from whole cell extracts by using GSH-agarose beads containing 80 μg GST-cJun as described above. Proteins were eluted in Laemlli sample buffer and resolved on 10% SDS-polyacrylamide gel, which was polymerized in the absence or presence of GST-cJun (40 μg/ml). After electrophoresis, the gel was washed twice, 30 minutes each time with 100 ml of 20% 2-propanol, 50 mM HEPES pH 7.6 to remove SDS. After the gel was washed twice, 30 minutes each time, with 100 ml of buffer A (50 mM HEPES pH 7.6, 5 mM β-mercaptoethanol), it was incubated in 200 ml of 6M urea in buffer A at room temperature for 1 hr, followed by serial incubations in buffer A containing 0.05% Tween 20 and either 3M, 1.5M or 0.75M urea. After the gel was washed several times, 1 hr each time, with 100 ml of buffer A containing 0.05% Tween 20 at 4° C., it was incubated with kinase buffer containing 50 μM ATP and 5 μCi/ml γ-^32P-ATP at 30° C. for 1 hour. After the reaction, the gel was washed with 100 ml of 5% tricholoroacetic acid and 1% sodium pyrophosphate at room temperature several times, followed by drying and autoradiography.
JNK exists in two forms, 46 kD and 55 kD in size, both of which are activated by external stimuli (Hibi, et al., supra, 1993; Deng, et al., supra, 1993). […] Whole cell extracts (WCE) of Jurkat cells incubated with TPA (T, 50 ng/ml), A23187 (A, 1 μg/ml) or CsA (100 ng/ml) for 15 minutes, alone or in combination, were separated by SDS-PAGE (100 μg protein/lane) on gels that were cast in the absence or presence of GST-cJun (1-223). The gels were subjected to renaturation protocol and incubated in kinase buffer containing γ-^32P-ATP. The protein bands corresponding to the 55 kD and 46 kD forms of JNK are indicated.
The regulation of JNK in response to T cell activation with anti-CD3 and anti-CD28 antibodies was examined. Jurkat cells (1×10^7) were incubated for 15 minutes with either normal mouse serum, 1 μg/ml anti-CD3 and/or 2 μg/ml anti-CD28, in the absence or presence of 100 ng/ml CsA, as indicated. WCE were prepared and 100 μg samples were analyzed for JNK activation using the in-gel kinase assay, as described above.

JNK = experiment: Solid-state phosphorylation assay of JNK on GSTcJun(1-223)-GSH agarose beads, Jurkat cells; conditions: for JNK activation together with suboptimal dose of TPA: A23187, anti-CD3 or anti-CD28 plus suboptimal TPA; for JNK activation, solid-state assay, agent alone: TPA 50 ng/ml or A23187 1 μg/ml, 15 minutes
Procedure: Exponentially growing cells were stimulated for the indicated times and hypotonic detergent cellular extracts were prepared as described (Hibi, et al., Genes and Dev., supra, 1993). The solid-state phosphorylation assay for measuring JNK activity was performed by incubated extracts with GSTcJun(1-223)-GSH agarose beads as described (Hibi, et al., supra., 1993) and as in Example 2. ERK1 and 2 activity was assayed by an immunecomplex kinase assay using MBP as a substrate (Minden, et al., Nature, 1993).
JNK can be retained on GSTcJun-glutathione (GSH) agarose affinity resin and its kinase activity measured by phosphorylation of GSTcJun. WCE (50 μg) of Jurkat cells treated as described above were incubated with 5 μl of GSH agarose beads coated with 10 μg GST-cJun (1-223) for 12 hours at 4° C. After extensive washing, the beads were incubated in kinase buffer containing γ-^32P-ATP for 20 minutes at 30° C., after which the proteins were dissociated by incubation in SDS sample buffer and separated by SDS-PAGE (FIG. 13B). The 49 kD band corresponds to GST-cJun (1-223). The faster migrating bands are degradation products (Hibi, et al., supra, 1993).
WCE (50 μg) of Jurkat cells treated as described above were incubated with GSTcJun(1-223)-GSH agarose beads and assayed for JNK activity using the solid-state kinase assay. The same WCE (20 μg) were immunoprecipitated with anti-ERK2 antibodies and assayed for MBP-kinase activity.
WCE (50 μg) of Jurkat cells treated as described in Panel A with various stimuli alone or their combinations were incubated with GSTcJun(1-223)-GSH agarose beads and assayed for JNK activity using solid-state kinase assay. The same samples (20 μg) were also assayed for MBP-kinase activity as described in FIG. 16B.

Ha-Ras = experiment: GTP content of Ha-Ras in 32P-labelled Jurkat cells; conditions: for Ha-Ras activation measured by increase in GTP content, agent alone: 10 ng/ml TPA, 1 μg/ml anti-CD3 or 2 μg/ml anti-CD28, 2 minutes
Procedure: Jurkat cells 10×10^6 were labelled for 3 hours with ^32P-orthophosphate (ICN Radiochemicals) at 1 mCi/ml in 5 mM of Na3VO4 phosphate-free DMEM supplemented with 1 mg/ml BSA. Before harvest, cells were stimulated with TPA, 10 ng/ml, A23187, 1 μg/ml anti-CD3 antibody (OKT3), 10 μg/ml, anti-CD28 antibody, 2 μg/ml or their combinations. After treatment for a specified period, cells were washed once immediately with ice cold PBS, twice with ice-cold Tris-Buffered saline (50 mM Tris-HCl, pH 7.5, 20 mM MgCl2, 150 mM NaCl, […] Nonidet P-40/1 μg/ml of aprotinin, leupeptin, pepstatin and 1 mM phenylmethyl sulfonylfluoride). Ras p21 was immunoprecipitated with monoclonal antibody […] (Santa Cruz Biotechnology, Inc., Santa Cruz, Calif.). The GDP/GTP content of Ras was analyzed by TLC as described (Satoh, et al., Proc. Natl. Acad. Sci., USA, 15:5993, 1990) and quantitated with an Ambis radioanalytic image system (Ambis, San Diego, Calif.).
Jurkat cells (2×10^6 cells per point) labeled with 0.4 mCi of ^32P-orthophosphate for 3 hours were incubated with nonspecific antibody (1 μg/ml mouse IgG; control), 1 μg/ml anti-CD3, 2 μg/ml anti-CD28, 10 ng/ml TPA or 500 ng/ml A23187 (A), as indicated. After 2 minutes, the cells were harvested, lysed and Ha-Ras was isolated by immunoprecipitation. The guanine nucleotide bound to Ha-Ras were extracted, separated by thin layer chromatography and quantitiated as described in EXAMPLE 9. The values shown represent the averages of two separate experiments done in duplicates. Jurkat cells were labeled with ^32P-orthophosphate and stimulated with either TPA or anti-CD3 as described above. At the indicated time points, the cells were harvested and the GTP content of Ha-Ras was determined as described directly above.

## cyclosporin A [CsA]
[1]; CsA 100 ng/ml, 15 minutes
  JNK activation, in-gel kinase assay, CsA added to TPA+A23187: blocked this costimulatory effect
JNK; CsA 100 ng/ml
  JNK activation, solid-state assay, CsA added to TPA+A23187: inhibited
JNK; Jurkat
  JNK activation by suboptimal TPA+A23187, effect of CsA: completely inhibited
JNK; Jurkat, CsA 100 ng/ml
  JNK activation by anti-CD3+anti-CD28, effect of CsA: partially attenuated this effect

## CNc1ccc2oc(C[C@H]3O[C@@]4(CC[C@H]3C)O[C@H]([C@H](C)C(=O)c3ccc[nH]3)[C@H](C)C[C@H]4C)nc2c1C(=O)O [A23187]
[1]; A23187 1 μg/ml plus TPA 50 ng/ml, 15 minutes
  JNK activation, in-gel kinase assay, costimulation with TPA: potentiated its activation by TPA
[1]; Jurkat, 15 minutes
  JNK activation, in-gel kinase assay, agent alone: did not activate JNK
Ha-Ras
  Ha-Ras activation by anti-CD3 or TPA, costimulation with anti-CD28 or A23187, respectively: not augmented
JNK; A23187 1 μg/ml plus TPA 50 ng/ml
  JNK activation, solid-state assay, costimulation with TPA: strongly potentiated
JNK; Jurkat
  JNK activation together with suboptimal dose of TPA: strong synergistic activation of JNK
  JNK activation, solid-state assay, agent alone: had no effect

## anti-CD3: anti-CD3 monoclonal antibody OKT3
[1]; Jurkat, 1 μg/ml anti-CD3 and 2 μg/ml anti-CD28, 15 minutes
  JNK activity, in-gel kinase assay, simultaneous incubation with both antibodies: strong synergistic activation of both forms
Ha-Ras
  Ha-Ras activation measured by increase in GTP content, agent alone: activation of Ha-Ras
Ha-Ras; soluble anti-CD3
  time course of Ha-Ras response: highly transient
JNK; Jurkat
  JNK activation together with suboptimal dose of TPA: strong synergistic activation of JNK
JNK; Jurkat, anti-CD3 or anti-CD28 plus A23187
  JNK activation, combined treatment with A23187: efficiently activated

## CCCCCCCCCCCCCC(=O)O[C@@H]1[C@@H](C)[C@@]2(O)[C@@H](C=C(CO)C[C@]3(O)C(=O)C(C)=C[C@@H]23)[C@H]2C(C)(C)[C@]12OC(C)=O [TPA]
[1]; Jurkat, 15 minutes
  JNK activation, in-gel kinase assay, agent alone: activated
Ha-Ras
  Ha-Ras activation measured by increase in GTP content, agent alone: activation of Ha-Ras
Ha-Ras; TPA
  persistence of Ha-Ras activation: at least 20 minutes
JNK; Jurkat
  JNK activation, suboptimal dose of TPA by itself: does not lead to JNK activation
  JNK activation, solid-state assay, agent alone: activation of JNK

Reference: patent publication US6706509B2, “Oncoprotein protein kinase” (The Regents of the University of California, priority 1993, dated 2004)
